Assays:
[1] = permeation of fluorescent dyes from multi-layered device into buccal tissue; type: in vitro ADME, lamb
From the text: FIGS. 5A-5C show three images taken from lamb buccal tissue at different time points.
In another representative embodiment, a multi-layered device may be used for the delivery of multiple agents over a prolonged period of time (FIG. 4, FIG. 5). If the example of mucositis is again used, multiple layers may include a pain mitigator in free form, a pain mitigator encapsulated within microparticles and an agent for the treatment of mucositis encapsulated within microparticles. The initial freeform layer is able to provide immediate pain relief, and the subsequent particle-encapsulated layers are capable of delivering microparticles beneath the tissue, where they further release their agents over a period of days, providing longer-term pain relief and treatment. FIG. 4 and FIG. 5 illustrate this effect. Fluorescence was used in order to provide detection. As shown, the multiple fluorescent layers released over time and permeated the tissue at different rates, providing a customized treatment.

[2] = release profile of cisplatin from particles, detected by atomic absorption spectrometry; type: physicochemical; settings: over 60 hours; particles of average diameter 500 to 2000 nm
From the text: FIG. 1 is a graph showing the release profile of example particles having an average diameter in the range of 500 to 2000 nm. […] Cisplatin was used for this experiment due to its use in the treatment of oral cancer and its ease of detection via atomic absorption spectrometry (AAS).

Row | permeation into tissue ([1]; after 30 minutes) | permeation into tissue ([1]; after 1 hour) | Structure (SMILES) | cisplatin released from NPs [2]
1 | beginning to permeate the tissue | permeating deeper into the tissue | O=C1OC2(c3ccc(O)cc3Oc3cc(O)ccc32)c2ccc(N=C=S)cc21 [FITC] | –
2 | – | – | N.N.[Cl][Pt][Cl] [cisplatin, Cisplatin] | 45%
